According to paper PMC8330742, “New benzothieno[2,3-c]pyridines as non-steroidal CYP17 inhibitors: design, synthesis, anticancer screening, apoptosis induction, and in silico ADME profile studies” (Journal of Enzyme Inhibition and Medicinal Chemistry, 2021):

Experiments:
[1] = test system: CAKI-1; assay: NCI-60 SRB screen; type: cell-based, human; conditions: Homo sapiens; CAKI-1; single dose 10^−5 M; read-out: Growth inhibition (%)
[2] = test system: NCI-H226; assay: NCI-60 SRB screen; type: cell-based, human; conditions: Homo sapiens; NCI-H226; single dose 10^−5 M; read-out: Growth inhibition (%)
[3] = test system: SF-268; assay: NCI-60 SRB screen; type: cell-based, human; conditions: Homo sapiens; SF-268; single dose 10^−5 M; read-out: Growth inhibition (%)
[4] = test system: SF-295; assay: NCI-60 SRB screen; type: cell-based, human; conditions: Homo sapiens; SF-295; single dose 10^−5 M; read-out: Growth inhibition (%)
[5] = test system: SK-MEL-28; assay: NCI-60 SRB screen; type: cell-based; conditions: Homo sapiens; SK-MEL-28; single dose 10^−5 M; read-out: Growth inhibition (%)
[6] = test system: SK-MEL-2; assay: NCI-60 SRB screen; type: cell-based, human; conditions: Homo sapiens; SK-MEL-2; single dose 10^−5 M; read-out: Growth inhibition (%)
[7] = test system: ACHN; assay: NCI-60 SRB screen; type: cell-based; conditions: Homo sapiens, single dose 10^−5 M, read-out: Growth inhibition (%)
[8] = test system: LOX IMVI; assay: NCI-60 SRB screen; type: cell-based, human; conditions: Homo sapiens, single dose 10^−5 M, read-out: Growth inhibition (%)
[9] = test system: panel of 60 cancer cell lines; assay: NCI-60 SRB screen, mean or range over the panel; type: cell-based, human; conditions: Homo sapiens; mean over the cell lines; single dose 10^−5 M; read-out: Mean growth inhibition (%)
[10] = test system: NCI/ADR-RES; assay: NCI-60 SRB screen; type: cell-based, human; conditions: Homo sapiens, single dose 10^−5 M, read-out: Growth inhibition (%)
[11] = test system: SN12C; assay: NCI-60 SRB screen; type: cell-based, human; conditions: Homo sapiens, SN12C; SN 12 C; single dose 10^−5 M; read-out: Growth inhibition (%)
[12] = test system: HT-29; assay: NCI-60 SRB screen; type: cell-based; conditions: Homo sapiens; HT-29; single dose 10^−5 M; read-out: Growth inhibition (%)
[13] = test system: K-562; assay: NCI-60 SRB screen; type: cell-based, human; conditions: Homo sapiens, K562; K-562; single dose 10^−5 M; read-out: Growth inhibition (%)
[14] = test system: UACC-257; assay: NCI-60 SRB screen; type: cell-based, human; conditions: Homo sapiens, UACC-257; UACC-275 (so in the source); single dose 10^−5 M; read-out: Growth inhibition (%)
[15] = test system: NCI-H460; assay: NCI-60 SRB screen; type: cell-based, human; conditions: Homo sapiens; NCI-H460; single dose 10^−5 M; read-out: Growth inhibition (%)
[16] = test system: HCT-116; assay: NCI-60 SRB screen; type: cell-based, human; conditions: Homo sapiens; HCT-116; single dose 10^−5 M; read-out: Growth inhibition (%)
[17] = test system: HL-60(TB); assay: NCI-60 SRB screen; type: cell-based, human; conditions: Homo sapiens; HL-60 (TB); single dose 10^−5 M; read-out: Growth inhibition (%)
[18] = test system: OVCAR-4; assay: NCI-60 SRB screen; type: cell-based, human; conditions: Homo sapiens; OVCAR-4; single dose 10^−5 M; read-out: Growth inhibition (%)
[19] = test system: HOP-92; assay: NCI-60 SRB screen; type: cell-based, human; conditions: Homo sapiens; HOP-92; single dose 10^−5 M; read-out: Growth inhibition (%)
[20] = test system: UO-31; assay: NCI-60 SRB screen; type: cell-based, human; conditions: Homo sapiens; UO-31; single dose 10^−5 M; read-out: Growth inhibition (%)
[21] = test system: M14; assay: NCI-60 SRB screen; type: cell-based, human; conditions: Homo sapiens; M14; single dose 10^−5 M; read-out: Growth inhibition (%)
[22] = test system: TK-10; assay: NCI-60 SRB screen; type: cell-based, human; conditions: Homo sapiens; TK-10; single dose 10^−5 M; read-out: Growth inhibition (%)
[23] = test system: HCC-2998; assay: NCI-60 SRB screen; type: cell-based, human; conditions: Homo sapiens; HCC-2998; single dose 10^−5 M; read-out: Growth inhibition (%)
[24] = test system: MOLT-4; assay: NCI-60 SRB screen; type: cell-based; conditions: Homo sapiens; MOLT-4; single dose 10^−5 M; read-out: Growth inhibition (%)
[25] = test system: COLO 205; assay: NCI-60 SRB screen; type: cell-based, human; conditions: Homo sapiens; COLO 205; single dose 10^−5 M; read-out: Growth inhibition (%)
[26] = test system: UACC-62; assay: NCI-60 SRB screen; type: cell-based, human; conditions: Homo sapiens; UACC-62; single dose 10^−5 M; read-out: Growth inhibition (%)
[27] = test system: NCI-H522; assay: NCI-60 SRB screen; type: cell-based, human; conditions: Homo sapiens; NCI-H522; single dose 10^−5 M; read-out: Growth inhibition (%)
[28] = test system: RXF 393; assay: NCI-60 SRB screen; type: cell-based, human; conditions: Homo sapiens; RXF 393; single dose 10^−5 M; read-out: Growth inhibition (%)
[29] = test system: NCI-H322M; assay: NCI-60 SRB screen; type: cell-based, human; conditions: Homo sapiens, single dose 10^−5 M, read-out: Growth inhibition (%)
[30] = test system: SK-MEL-5; assay: NCI-60 SRB screen; type: cell-based, human; conditions: Homo sapiens; SK-MEL-5; single dose 10^−5 M; read-out: Growth inhibition (%)
[31] = test system: SR; assay: NCI-60 SRB screen; type: cell-based; conditions: Homo sapiens, single dose 10^−5 M, read-out: Growth inhibition (%)
[32] = test system: SW-620; assay: NCI-60 SRB screen; type: cell-based; conditions: Homo sapiens; SW-620; single dose 10^−5 M; read-out: Growth inhibition (%)
[33] = test system: A549/ATCC; assay: NCI-60 SRB screen; type: cell-based, human; conditions: Homo sapiens, single dose 10^−5 M, read-out: Growth inhibition (%)
[34] = test system: HOP-62; assay: NCI-60 SRB screen; type: cell-based, human; conditions: Homo sapiens; HOP-62; single dose 10^−5 M; read-out: Growth inhibition (%)
[35] = test system: KM12; assay: NCI-60 SRB screen; type: cell-based, human; conditions: Homo sapiens; KM12; single dose 10^−5 M; read-out: Growth inhibition (%)
[36] = test system: OVCAR-8; assay: NCI-60 SRB screen; type: cell-based, human; conditions: Homo sapiens; OVCAR-8; single dose 10^−5 M; read-out: Growth inhibition (%)
[37] = test system: SK-OV-3; assay: NCI-60 SRB screen; type: cell-based, human; conditions: Homo sapiens; SK-OV-3; single dose 10^−5 M; read-out: Growth inhibition (%)
[38] = test system: MDA-MB-435; assay: NCI-60 SRB screen; type: cell-based; conditions: Homo sapiens, MDA-MB-435, read-out: Growth inhibition (%)
[39] = test system: NCI-H23; assay: NCI-60 SRB screen; type: cell-based, human; conditions: Homo sapiens; NCI-H23; single dose 10^−5 M; read-out: Growth inhibition (%)
[40] = test system: IGROV1; assay: NCI-60 SRB screen; type: cell-based, human; conditions: Homo sapiens, IGROV-1; IGROV1; single dose 10^−5 M; read-out: Growth inhibition (%)
[41] = test system: EKVX; assay: NCI-60 SRB screen; type: cell-based, human; conditions: Homo sapiens, single dose 10^−5 M, read-out: Growth inhibition (%)
[42] = test system: HCT-15; assay: NCI-60 SRB screen; type: cell-based, human; conditions: Homo sapiens; HCT-15; single dose 10^−5 M; read-out: Growth inhibition (%)
[43] = test system: 786-0; assay: NCI-60 SRB screen; type: cell-based; conditions: Homo sapiens; 786-0; single dose 10^−5 M; read-out: Growth inhibition (%)
[44] = test system: OVCAR-3; assay: NCI-60 SRB screen; type: cell-based, human; conditions: Homo sapiens; OVCAR-3; single dose 10^−5 M; read-out: Growth inhibition (%)

N#CC1C(=O)NC(c2cccc([N+](=O)[O-])c2)c2sc3c(F)cccc3c21 (centres unmarked) [Compound 5d, 4-Cyano-8-fluoro-1-(3-nitrophenyl)-1,2-dihydro[1]benzothieno[2,3-c] pyridin-3(4H)-one]
inhibition at 10 µM [1]: 14.4% | inhibition at 10 µM [2]: 3.95% | inhibition at 10 µM [3]: 16.4% | inhibition at 10 µM [4]: 1.95% | inhibition at 10 µM [5]: -21.6% | inhibition at 10 µM [6]: -13.1% | inhibition at 10 µM [7]: 13.5% | inhibition at 10 µM [8]: 17.4% | inhibition at 10 µM [9]: 5% | inhibition at 10 µM [10]: 2.18% | inhibition at 10 µM [11]: 5.16% | inhibition at 10 µM [12]: -2.29% | inhibition at 10 µM [13]: 8.17% | inhibition at 10 µM [14]: -19% | inhibition at 10 µM [15]: 18.1% | inhibition at 10 µM [16]: 7.78% | inhibition at 10 µM [17]: -0.44% | inhibition at 10 µM [18]: 9.55% | inhibition at 10 µM [19]: 17.2% | inhibition at 10 µM [20]: 41.3% | inhibition at 10 µM [21]: -8.86% | inhibition at 10 µM [22]: -58.3% | inhibition at 10 µM [23]: -14.2% | inhibition at 10 µM [24]: 18.9% | inhibition at 10 µM [25]: -14.8% | inhibition at 10 µM [26]: 12.2% | inhibition at 10 µM [27]: 22.4% | inhibition at 10 µM [28]: -7.73% | inhibition at 10 µM [29]: 4.25% | inhibition at 10 µM [30]: 4.83% | inhibition at 10 µM [31]: 17.3% | inhibition at 10 µM [32]: 7.44% | inhibition at 10 µM [33]: -6.53% | inhibition at 10 µM [34]: 21.4% | inhibition at 10 µM [35]: 5.7% | inhibition at 10 µM [36]: 5.37% | inhibition at 10 µM [37]: -0.9% | inhibition at 10 µM [38]: -6.69% | inhibition at 10 µM [39]: -0.19% | inhibition at 10 µM [40]: 36.6% | inhibition at 10 µM [41]: 11.5% | inhibition at 10 µM [42]: 0.05% | inhibition at 10 µM [43]: -6.8% | inhibition at 10 µM [44]: 9.36%
